24 compounds from patent publication US20250145633A1, “SUBSTITUTED FURANOPYRIMIDINE COMPOUNDS AS PDE1 INHIBITORS” (Dart NeuroScience, LLC, priority 2017, published 2025) can be followed below.

Where only a bound is given, the exact number is not on record here.

The first assay deals with human PDE1B enzyme (Homo sapiens (Human), UniProt Q01064). As to the kind of experiment: IMAP TR-FRET PDE1B enzymatic assay. Particulars: negative log of half-maximal molar inhibitory concentration; 200 nM FAM-cAMP; values given as bins. It counts as biochemical. An outline of the steps: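 Full-length GST-tagged human PDE1B (250 pg/well) in IMAP BSA buffer with 10 U/ml calmodulin and 2.5 mM CaCl2; compound pre-incubated 5 min at room temperature, then 200 nM (final) FAM-cAMP for 30 min. IMAP binding reagent/Tb added, 1 h; TR-FRET 520/490 ratio read. IC50 from sigmoidal dose-response fit.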
For orientation: TR-FRET usually uses a lanthanide donor and a delayed reading to cut background.
On to `Cc1oc2ncnc(NC3(C)CC3)c2c1C(=O)N1CCC(c2ccccn2)CC1` [Example 301, 6-Methyl-N-(1-methylcyclopropyl)-5-[4-(pyridin-2-yl)piperidine-1-carbonyl]furo[2,3-d]pyrimidin-4-amine], for which the “PDE1b (pIC50)” value was over 8.

For the compound `COc1ccc(C(C)NC(=O)c2c(C)oc3ncnc(NC4(C)CC4)c23)cc1F` (stereo not drawn) [Example 304, N-[1-(3-Fluoro-4-methoxyphenyl)ethyl]-6-methyl-4-[(1-methylcyclopropyl)amino]furo[2,3-d]pyrimidine-5-carboxamide], the “PDE1b (pIC50)” value is recorded as over 8.

Take `COc1ccc([C@@H](C)NC(=O)c2c(C)oc3ncnc(NC4(C)CC4)c23)c(F)c1` [Example 306, N-[(1R)-1-(2-Fluoro-4-methoxyphenyl)ethyl]-6-methyl-4-[(1-methylcyclopropyl)amino]furo[2,3-d]pyrimidine-5-carboxamide]: the “PDE1b (pIC50)” value is over 8.

With `Cc1oc2ncnc(NC3(C)CC3)c2c1C(=O)N1CCC(c2ncccn2)CC1` [Example 309, 6-Methyl-N-(1-methylcyclopropyl)-5-[4-(pyrimidin-2-yl)piperidine-1-carbonyl]furo[2,3-d]pyrimidin-4-amine], the “PDE1b (pIC50)” value is on record as over 8.

With `Cc1oc2ncnc(NC3(C)CC3)c2c1C(=O)NCc1ccc(Cl)nc1` [Example 312, N-[(6-Chloropyridin-3-yl)methyl]-6-methyl-4-[(1-methylcyclopropyl)amino]furo[2,3-d]pyrimidine-5-carboxamide], the “PDE1b (pIC50)” value was over 8.

`CCc1cc(CNC(=O)c2c(C)oc3ncnc(NC4(C)CC4)c23)no1` [Example 322, N-[(5-Ethyl-1,2-oxazol-3-yl)methyl]-6-methyl-4-[(1-methylcyclopropyl)amino]furo[2,3-d]pyrimidine-5-carboxamide]: the “PDE1b (pIC50)” value is reported as over 8.

On to `Cc1oc2ncnc(NC3(C)CC3)c2c1C(=O)NCc1cc(C2CC2)on1` [Example 323, N-[(5-Cyclopropyl-1,2-oxazol-3-yl)methyl]-6-methyl-4-[(1-methylcyclopropyl)amino]furo[2,3-d]pyrimidine-5-carboxamide], for which the “PDE1b (pIC50)” value is over 8.

Still in this assay, the particulars now being: negative log of half-maximal molar inhibitory concentration; 200 nM FAM-cAMP; values given as bins; read-out: PDE1b (pIC50) (converted).
On to `Cc1oc2ncnc(NC3(C)CC3)c2c1C(=O)NC1(C2CCOCC2)CC1` [Example 300, 6-Methyl-4-[(1-methylcyclopropyl)amino]-N-[1-(oxan-4-yl)cyclopropyl]furo[2,3-d]pyrimidine-5-carboxamide], for which the IC50 is 10 to 100 nM.

For the compound `Cc1oc2ncnc(NC3(C)CC3)c2c1C(=O)NC(C)c1ncc(F)cn1` (stereo not drawn) [Example 302, N-[1-(5-Fluoropyrimidin-2-yl)ethyl]-6-methyl-4-[(1-methylcyclopropyl)amino]furo[2,3-d]pyrimidine-5-carboxamide], the IC50 is 10 to 100 nM.

In the case of `Cc1oc2ncnc(NC3(C)CC3)c2c1C(=O)N1CCc2nc(F)ncc2C1` [Example 303, 5-{2-Fluoro-5H,6H,7H,8H-pyrido[4,3-d]pyrimidine-6-carbonyl}-6-methyl-N-(1-methylcyclopropyl)furo[2,3-d]pyrimidin-4-amine], the IC50 is 100 to 1000 nM.

Regarding `COc1ccc([C@H](C)NC(=O)c2c(C)oc3ncnc(NC4(C)CC4)c23)c(F)c1` [Example 305, N-[(1S)-1-(2-Fluoro-4-methoxyphenyl)ethyl]-6-methyl-4-[(1-methylcyclopropyl)amino]furo[2,3-d]pyrimidine-5-carboxamide], the IC50 is 10 to 100 nM.

As to `Cc1oc2ncnc(NC3(C)CC3)c2c1C(=O)N1CCc2cnc(F)nc2C1` [Example 307, 5-{2-Fluoro-5H,6H,7H,8H-pyrido[3,4-d]pyrimidine-7-carbonyl}-6-methyl-N-(1-methylcyclopropyl)furo[2,3-d]pyrimidin-4-amine], the IC50 was 10 to 100 nM.

For `Cc1oc2ncnc(NC3(C)CC3)c2c1C(=O)N1CCN(c2nc(Cl)c(Cl)c(Cl)c2Cl)CC1` [Example 308, 6-Methyl-N-(1-methylcyclopropyl)-5-[4-(tetrachloropyridin-2-yl)piperazine-1-carbonyl]furo[2,3-d]pyrimidin-4-amine], the IC50 is 10 to 100 nM.

Consider `Cc1oc2ncnc(NC3(C)CC3)c2c1C(=O)NC1CCCc2cccnc21` (stereo not drawn) [Example 310, 6-Methyl-4-[(1-methylcyclopropyl)amino]-N-(5,6,7,8-tetrahydroquinolin-8-yl)furo[2,3-d]pyrimidine-5-carboxamide], for which the IC50 is 100 to 1000 nM.

As for `Cc1oc2ncnc(NC3(C)CC3)c2c1C(=O)NC1(c2cnccn2)CC1` [Example 311, 6-Methyl-4-[(1-methylcyclopropyl)amino]-N-[1-(pyrazin-2-yl)cyclopropyl]furo[2,3-d]pyrimidine-5-carboxamide], the IC50 was 10 to 100 nM.

With `Cc1oc2ncnc(NC3(C)CC3)c2c1C(=O)NCc1cnc(Cl)nc1` [Example 313, N-[(2-Chloropyrimidin-5-yl)methyl]-6-methyl-4-[(1-methylcyclopropyl)amino]furo[2,3-d]pyrimidine-5-carboxamide], the IC50 was 10 to 100 nM.

On to `Cc1oc2ncnc(NC3(C)CC3)c2c1C(=O)N1CC(F)(c2ccccc2)C1` [Example 314, 5-(3-Fluoro-3-phenylazetidine-1-carbonyl)-6-methyl-N-(1-methylcyclopropyl)furo[2,3-d]pyrimidin-4-amine], for which the IC50 was 10 to 100 nM.

`Cc1oc2ncnc(NC3(C)CC3)c2c1C(=O)NC(C)c1cnccn1` (stereo not drawn) [Example 315, 6-Methyl-4-[(1-methylcyclopropyl)amino]-N-[1-(pyrazin-2-yl)ethyl]furo[2,3-d]pyrimidine-5-carboxamide]: the IC50 was 10 to 100 nM.

For the compound `Cc1oc2ncnc(NC3(C)CC3)c2c1C(=O)NC1CCc2cccnc21` (stereo not drawn) [Example 316, N-{5H,6H,7H-Cyclopenta[b]pyridin-7-yl}-6-methyl-4-[(1-methylcyclopropyl)amino]furo[2,3-d]pyrimidine-5-carboxamide], the IC50 is 100 to 1000 nM.

With `Cc1oc2ncnc(NC3(C)CC3)c2c1C(=O)NC(C)c1ccncn1` (stereo not drawn) [Example 317, 6-Methyl-4-[(1-methylcyclopropyl)amino]-N-[1-(pyrimidin-4-yl)ethyl]furo[2,3-d]pyrimidine-5-carboxamide], the IC50 was 10 to 100 nM.

As for `Cc1oc2ncnc(NC3(C)CC3)c2c1C(=O)NCc1cc(Br)no1` [Example 318, N-[(3-Bromo-1,2-oxazol-5-yl)methyl]-6-methyl-4-[(1-methylcyclopropyl)amino]furo[2,3-d]pyrimidine-5-carboxamide], the IC50 is 10 to 100 nM.

`Cc1cc(CNC(=O)c2c(C)oc3ncnc(NC4(C)CC4)c23)on1` [Example 319, 6-Methyl-N-[(3-methyl-1,2-oxazol-5-yl)methyl]-4-[(1-methylcyclopropyl)amino]furo[2,3-d]pyrimidine-5-carboxamide]: the IC50 was 10 to 100 nM.

On to `Cc1oc2ncnc(NC3(C)CC3)c2c1C(=O)N1CCC(c2nccn2C)C1` (stereo not drawn) [Example 320, 6-Methyl-5-[3-(1-methyl-1H-imidazol-2-yl)pyrrolidine-1-carbonyl]-N-(1-methylcyclopropyl)furo[2,3-d]pyrimidin-4-amine], for which the IC50 was 10 to 100 nM.

Turning to `Cc1oc2ncnc(NC3(C)CC3)c2c1C(=O)N1CCC(c2cnn(C)c2)C1` (stereo not drawn) [Example 321, 6-Methyl-5-[3-(1-methyl-1H-pyrazol-4-yl)pyrrolidine-1-carbonyl]-N-(1-methylcyclopropyl)furo[2,3-d]pyrimidin-4-amine], the IC50 was 10 to 100 nM.
